{"source": "patent US6376426B1", "about": "“Herbicidal 3-(heterocycl-1-yl)-uracils” (BASF Aktiengesellschaft, priority 1999, dated 2002)", "type_in_all_cases": "in vivo", "key": {"Stellaria media [1]": {"system": "Stellaria media", "experiment": "Pre-emergence herbicidal test, STEME", "conditions": "PRE, 21 days after spraying", "procedure": "(§1) To evaluate their herbicidal activity, compounds according to the invention are tested using a representative range of plants:\n(§2) The pre-emergence tests involve spraying a liquid formulation of the compound onto the soil in which the seeds of the plant species mentioned above has recently been sown.\n(§3) The soil used in the tests is a prepared horticultural loam. The formulations used in the tests are prepared from solutions of the test compounds in acetone containing 0.4% by weight of an alkylphenol/ethylene oxide condensate available under the trade mark TRITON X-155. […] In these tests untreated sown soil are used as controls.\n(§4) The herbicidal effects of the test compounds are assessed visually twenty-one days after spraying the foliage and the soil and are recorded on a 0-9 scale. A rating 0 indicates growth as untreated control, a rating 9 indicates death. An increase of 1 unit on the linear scale approximates to a 10% increase in the level of effect."}, "Ipomoea hederacea [2]": {"system": "Ipomoea hederacea", "experiment": "Post-emergence herbicidal test, IPOHE", "parameters": "key to herbicidal effect (0-9 scale) IPOHE / herbicidal rating IPOHE: A rating 0 indicates growth as untreated control; a rating 9 indicates death", "conditions": "POST, 21 days after spraying", "procedure": "as §1\n(§5) […] After spraying, the plants are placed on greenhouse benches and are cared for in the usual manner, commensurate with conventional greenhouse practices.\nas §4"}, "Setaria viridis [3]": {"system": "Setaria viridis", "experiment": "Post-emergence herbicidal test, SETVI", "parameters": "key to herbicidal effect (0-9 scale) SETVI / herbicidal rating SETVI: A rating 0 indicates growth as untreated control; a rating 9 indicates death", "conditions": "POST, 21 days after spraying", "procedure": "as §1, §5, §4"}, "Alopecurus myosuroides [4]": {"system": "Alopecurus myosuroides", "experiment": "Pre-emergence herbicidal test, ALOMY", "conditions": "PRE, 21 days after spraying", "procedure": "as §1, §2, §3, §4"}, "Hordeum vulgare [5]": {"system": "Hordeum vulgare", "experiment": "Pre-emergence herbicidal test, HORVW", "parameters": "key: A rating 0 indicates growth as untreated control; a rating 9 indicates death", "conditions": "21 days after spraying", "procedure": "as §1, §2, §3, §4"}, "Matricaria inodora [6]": {"system": "Matricaria inodora", "experiment": "Pre-emergence herbicidal test, MATIN", "conditions": "PRE, 21 days after spraying", "procedure": "as §1, §2, §3, §4"}, "Glycine max [7]": {"system": "Glycine max", "experiment": "Post-emergence herbicidal test, GLXMA", "conditions": "21 days after spraying", "procedure": "as §1, §5, §4"}, "Ipomoea hederacea [8]": {"system": "Ipomoea hederacea", "experiment": "Pre-emergence herbicidal test, IPOHE", "conditions": "21 days after spraying", "procedure": "as §1, §2, §3, §4"}, "Echinochloa crus-galli [9]": {"system": "Echinochloa crus-galli", "experiment": "Post-emergence herbicidal test, ECHCG", "conditions": "21 days after spraying", "procedure": "as §1, §5, §4"}, "Galium aparine [10]": {"system": "Galium aparine", "experiment": "Post-emergence herbicidal test, GALAP", "conditions": "POST, 21 days after spraying", "procedure": "as §1, §5, §4"}, "Glycine max [11]": {"system": "Glycine max", "experiment": "Pre-emergence herbicidal test, GLXMA", "parameters": "key to herbicidal effect (0-9 scale) GLXMA / herbicidal rating GLXMA: A rating 0 indicates growth as untreated control; a rating 9 indicates death", "conditions": "PRE, 21 days after spraying", "procedure": "as §1, §2, §3, §4"}, "Setaria viridis [12]": {"system": "Setaria viridis", "experiment": "Pre-emergence herbicidal test, SETVI", "conditions": "PRE, 21 days after spraying", "procedure": "as §1, §2, §3, §4"}, "Abutilon theophrasti [13]": {"system": "Abutilon theophrasti", "experiment": "Pre-emergence herbicidal test, ABUTH", "conditions": "PRE, 21 days after spraying", "procedure": "as §1, §2, §3, §4"}, "Abutilon theophrasti [14]": {"system": "Abutilon theophrasti", "experiment": "Post-emergence herbicidal test, ABUTH", "parameters": "key to herbicidal effect (0-9 scale) ABUTH / herbicidal rating ABUTH: A rating 0 indicates growth as untreated control; a rating 9 indicates death", "conditions": "POST, 21 days after spraying", "procedure": "as §1, §5, §4"}, "Galium aparine [15]": {"system": "Galium aparine", "experiment": "Pre-emergence herbicidal test, GALAP", "parameters": "key to herbicidal effect (0-9 scale) GALAP / herbicidal rating GALAP: A rating 0 indicates growth as untreated control; a rating 9 indicates death", "conditions": "PRE, 21 days after spraying", "procedure": "as §1, §2, §3, §4"}, "Zea mays [16]": {"system": "Zea mays", "experiment": "Pre-emergence herbicidal test, ZEAMX", "conditions": "PRE, 21 days after spraying", "procedure": "as §1, §2, §3, §4"}, "Triticum aestivum [17]": {"system": "Triticum aestivum", "experiment": "Pre-emergence herbicidal test, TRZAW", "parameters": "key: A rating 0 indicates growth as untreated control; a rating 9 indicates death", "conditions": "21 days after spraying", "procedure": "as §1, §2, §3, §4"}, "Matricaria inodora [18]": {"system": "Matricaria inodora", "experiment": "Post-emergence herbicidal test, MATIN", "conditions": "POST, 21 days after spraying", "procedure": "as §1, §5, §4"}, "Triticum aestivum [19]": {"system": "Triticum aestivum", "experiment": "Post-emergence herbicidal test, TRZAW", "conditions": "POST, 21 days after spraying", "procedure": "as §1, §5, §4"}, "Zea mays [20]": {"system": "Zea mays", "experiment": "Post-emergence herbicidal test, ZEAMX", "conditions": "21 days after spraying", "procedure": "as §1, §5, §4"}, "Alopecurus myosuroides [21]": {"system": "Alopecurus myosuroides", "experiment": "Post-emergence herbicidal test, ALOMY", "conditions": "21 days after spraying", "procedure": "as §1, §5, §4"}, "Hordeum vulgare [22]": {"system": "Hordeum vulgare", "experiment": "Post-emergence herbicidal test, HORVW", "conditions": "21 days after spraying", "procedure": "as §1\nThese acetone solutions are diluted with water and the resulting formulations applied at dosage levels equivalent to about 1000, 800, 400, 250 or 100 g/ha per hectare of test compound per pot. After spraying, the plants are placed on greenhouse benches and are cared for in the usual manner, commensurate with conventional greenhouse practices.\nas §4"}, "Stellaria media [23]": {"system": "Stellaria media", "experiment": "Post-emergence herbicidal test, STEME", "conditions": "POST, 21 days after spraying", "procedure": "as §1, §5, §4"}, "Echinochloa crus-galli [24]": {"system": "Echinochloa crus-galli", "experiment": "Pre-emergence herbicidal test, ECHCG", "conditions": "21 days after spraying", "procedure": "as §1, §2, §3, §4"}}, "data": [{"smiles": "Cn1c(C(F)(F)F)cc(=O)n(-n2ccc3ccc(Br)cc32)c1=O", "note": "[Example 6]", "values": [{"measurement": "herbicidal effect (0-9 scale) STEME", "setting": "Stellaria media [1]; 100 g/ha", "result": 1}, {"measurement": "herbicidal effect (0-9 scale) STEME", "setting": "Stellaria media [1]; 400 g/ha", "result": 4}, {"measurement": "herbicidal effect (0-9 scale) IPOHE", "setting": "Ipomoea hederacea [2]; 100 g/ha", "result": 8}, {"measurement": "herbicidal effect (0-9 scale) IPOHE", "setting": "Ipomoea hederacea [2]; 400 g/ha", "result": 9}, {"measurement": "herbicidal effect (0-9 scale) SETVI", "setting": "Setaria viridis [3]; 100 g/ha", "result": 7}, {"measurement": "herbicidal effect (0-9 scale) SETVI", "setting": "Setaria viridis [3]; 400 g/ha", "result": 9}, {"measurement": "herbicidal effect (0-9 scale) ALOMY", "setting": "Alopecurus myosuroides [4]; 100 g/ha", "result": 1}, {"measurement": "herbicidal effect (0-9 scale) ALOMY", "setting": "Alopecurus myosuroides [4]; 400 g/ha", "result": 3}, {"measurement": "herbicidal effect (0-9 scale) HORVW", "setting": "Hordeum vulgare [5]; 100 g/ha", "result": 0}, {"measurement": "herbicidal effect (0-9 scale) HORVW", "setting": "Hordeum vulgare [5]; 400 g/ha", "result": 1}, {"measurement": "herbicidal effect (0-9 scale) MATIN", "setting": "Matricaria inodora [6]; 100 g/ha", "result": 1}, {"measurement": "herbicidal effect (0-9 scale) MATIN", "setting": "Matricaria inodora [6]; 400 g/ha", "result": 5}, {"measurement": "herbicidal effect (0-9 scale) GLXMA", "setting": "Glycine max [7]; 100 g/ha", "result": 4}, {"measurement": "herbicidal effect (0-9 scale) GLXMA", "setting": "Glycine max [7]; 400 g/ha", "result": 8}, {"measurement": "herbicidal effect (0-9 scale) IPOHE", "setting": "Ipomoea hederacea [8]; 100 g/ha", "result": 1}, {"measurement": "herbicidal effect (0-9 scale) IPOHE", "setting": "Ipomoea hederacea [8]; 400 g/ha", "result": 2}, {"measurement": "herbicidal effect (0-9 scale) ECHCG", "setting": "Echinochloa crus-galli [9]; 100 g/ha", "result": 4}, {"measurement": "herbicidal effect (0-9 scale) ECHCG", "setting": "Echinochloa crus-galli [9]; 400 g/ha", "result": 8}, {"measurement": "herbicidal effect (0-9 scale) GALAP", "setting": "Galium aparine [10]; 100 g/ha", "result": 5}, {"measurement": "herbicidal effect (0-9 scale) GALAP", "setting": "Galium aparine [10]; 400 g/ha", "result": 8}, {"measurement": "herbicidal effect (0-9 scale) GLXMA", "setting": "Glycine max [11]; 100 g/ha", "result": 0}, {"measurement": "herbicidal effect (0-9 scale) GLXMA", "setting": "Glycine max [11]; 400 g/ha", "result": 0}, {"measurement": "herbicidal effect (0-9 scale) SETVI", "setting": "Setaria viridis [12]; 100 g/ha", "result": 5}, {"measurement": "herbicidal effect (0-9 scale) SETVI", "setting": "Setaria viridis [12]; 400 g/ha", "result": 8}, {"measurement": "herbicidal effect (0-9 scale) ABUTH", "setting": "Abutilon theophrasti [13]; 100 g/ha", "result": 6}, {"measurement": "herbicidal effect (0-9 scale) ABUTH", "setting": "Abutilon theophrasti [13]; 400 g/ha", "result": 8}, {"measurement": "herbicidal effect (0-9 scale) ABUTH", "setting": "Abutilon theophrasti [14]; 100 g/ha", "result": 9}, {"measurement": "herbicidal effect (0-9 scale) ABUTH", "setting": "Abutilon theophrasti [14]; 400 g/ha", "result": 9}, {"measurement": "herbicidal effect (0-9 scale) GALAP", "setting": "Galium aparine [15]; 100 g/ha", "result": 2}, {"measurement": "herbicidal effect (0-9 scale) GALAP", "setting": "Galium aparine [15]; 400 g/ha", "result": 9}, {"measurement": "herbicidal effect (0-9 scale) ZEAMX", "setting": "Zea mays [16]; 100 g/ha", "result": 2}, {"measurement": "herbicidal effect (0-9 scale) ZEAMX", "setting": "Zea mays [16]; 400 g/ha", "result": 4}, {"measurement": "herbicidal effect (0-9 scale) TRZAW", "setting": "Triticum aestivum [17]; 100 g/ha", "result": 0}, {"measurement": "herbicidal effect (0-9 scale) TRZAW", "setting": "Triticum aestivum [17]; 400 g/ha", "result": 0}, {"measurement": "herbicidal effect (0-9 scale) MATIN", "setting": "Matricaria inodora [18]; 100 g/ha", "result": 3}, {"measurement": "herbicidal effect (0-9 scale) MATIN", "setting": "Matricaria inodora [18]; 400 g/ha", "result": 5}, {"measurement": "herbicidal effect (0-9 scale) TRZAW", "setting": "Triticum aestivum [19]; 100 g/ha", "result": 2}, {"measurement": "herbicidal effect (0-9 scale) TRZAW", "setting": "Triticum aestivum [19]; 400 g/ha", "result": 3}, {"measurement": "herbicidal effect (0-9 scale) ZEAMX", "setting": "Zea mays [20]; 100 g/ha", "result": 2}, {"measurement": "herbicidal effect (0-9 scale) ZEAMX", "setting": "Zea mays [20]; 400 g/ha", "result": 3}, {"measurement": "herbicidal effect (0-9 scale) ALOMY", "setting": "Alopecurus myosuroides [21]; 100 g/ha", "result": 2}, {"measurement": "herbicidal effect (0-9 scale) ALOMY", "setting": "Alopecurus myosuroides [21]; 400 g/ha", "result": 4}, {"measurement": "herbicidal effect (0-9 scale) HORVW", "setting": "Hordeum vulgare [22]; 100 g/ha", "result": 3}, {"measurement": "herbicidal effect (0-9 scale) HORVW", "setting": "Hordeum vulgare [22]; 400 g/ha", "result": 3}, {"measurement": "herbicidal effect (0-9 scale) STEME", "setting": "Stellaria media [23]; 100 g/ha", "result": 5}, {"measurement": "herbicidal effect (0-9 scale) STEME", "setting": "Stellaria media [23]; 400 g/ha", "result": 8}, {"measurement": "herbicidal effect (0-9 scale) ECHCG", "setting": "Echinochloa crus-galli [24]; 100 g/ha", "result": 1}, {"measurement": "herbicidal effect (0-9 scale) ECHCG", "setting": "Echinochloa crus-galli [24]; 400 g/ha", "result": 5}]}]}
